Here are results for 8 compounds from PubChem BioAssay (NCI).

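Cultured in 96-well plates, cells were exposed to test compound for 48 hours across five concentrations. The concentration for full growth arrest is given as TGI.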

Test systems include A549 NSCLC; CAKI-1 renal; CCRF-CEM leukemia; HCC-2998 colon; HCT-116 colon; HL-60(TB) leukemia; KM12 colon; LOX IMVI melanoma; MALME-3M melanoma; MDA-MB-231 breast; NCI-H226 lung; NCI/ADR-RES ovarian; OVCAR-3 ovarian; OVCAR-4 ovarian; OVCAR-5 ovarian; PC-3 prostate; SK-OV-3 ovarian; TK-10 renal; U251 CNS.
Common to all, as to assay: inhibition of tumour cell growth, NCI panel, 48 h

`CCCCCC(C/C=N/N(C)C)C(O)(C(F)(F)F)C(F)(F)F` (configuration not stated): the TGI with A549 NSCLC was above 100 µM; with CAKI-1 renal it was above 100 µM; in the assay with CCRF-CEM leukemia it was 62.7 µM; with HCC-2998 colon, above 100 µM; in the assay with HCT-116 colon, above 100 µM; with HL-60(TB) leukemia, 31.6 µM. Besides, the TGI was 81.6 µM in the assay with KM12 colon; above 100 µM in the assay with LOX IMVI melanoma; 67.1 µM in the assay on MALME-3M melanoma; 70.6 µM with MDA-MB-231 breast; above 100 µM with NCI-H226 lung; above 100 µM in the assay with NCI/ADR-RES ovarian. Moreover, the TGI in the assay with OVCAR-3 ovarian was 66.1 µM; in the assay with OVCAR-4 ovarian it was above 100 µM; with OVCAR-5 ovarian, above 100 µM; in the assay on PC-3 prostate, above 100 µM; with SK-OV-3 ovarian, above 100 µM; in the assay with TK-10 renal it was above 100 µM. The compound further displayed a TGI with U251 CNS above 100 µM.
Regarding `CN1CCc2c3n(c4cc(Br)ccc24)[C@H](O)CCCC31` (some centres not stated), the TGI in the assay with A549 NSCLC was above 10 µM; with CAKI-1 renal, above 7.17 µM; with CCRF-CEM leukemia, 3.74 µM; in the assay on HCC-2998 colon, 3.16 µM; in the assay with HCT-116 colon it was 3.07 µM; in the assay on HL-60(TB) leukemia, 4.15 µM. In addition, the TGI with KM12 colon is 5.32 µM; with LOX IMVI melanoma it was 3.29 µM; in the assay with MALME-3M melanoma, 4.63 µM; in the assay on MDA-MB-231 breast, 4.38 µM; with NCI-H226 lung it was above 10 µM; in the assay with NCI/ADR-RES ovarian it was above 10 µM. The TGI in the assay with OVCAR-3 ovarian was above 10 µM; with OVCAR-4 ovarian, above 7.44 µM; in the assay with OVCAR-5 ovarian, above 10 µM; with PC-3 prostate, above 10 µM; in the assay with SK-OV-3 ovarian it was above 10 µM; in the assay on TK-10 renal, above 10 µM. Further, the TGI with U251 CNS turned out to be 3.35 µM.
As to `Cc1cc(-c2cccc3ccccc23)c(C#N)c(=S)n1C1OC(CO)C(O)C(O)C1O` (configuration not stated), the TGI in the assay on A549 NSCLC, in the assay on CAKI-1 renal, in the assay with CCRF-CEM leukemia, with HCC-2998 colon, with HCT-116 colon and in the assay on HL-60(TB) leukemia was above 100 µM each time. Further, the TGI in the assay with KM12 colon, with LOX IMVI melanoma, in the assay with MALME-3M melanoma, in the assay on MDA-MB-231 breast, in the assay on NCI-H226 lung and in the assay with NCI/ADR-RES ovarian was above 100 µM in each case. For the same compound, the TGI in the assay on OVCAR-3 ovarian, with OVCAR-4 ovarian, in the assay with OVCAR-5 ovarian, in the assay with PC-3 prostate, in the assay on SK-OV-3 ovarian and in the assay with TK-10 renal was above 100 µM throughout.
On to `O=[N+]([O-])c1c(F)c(F)c2c(c1F)Nc1ccccc1S2`, for which the TGI with A549 NSCLC turned out to be 36.9 µM; with CAKI-1 renal, 8.24 µM; with CCRF-CEM leukemia, 6.46 µM; in the assay with HCC-2998 colon it was 6.96 µM; with HCT-116 colon, 6.18 µM; in the assay with HL-60(TB) leukemia it was 16.1 µM. For the same compound, the TGI in the assay with KM12 colon worked out at 15.5 µM; with LOX IMVI melanoma it was 3.39 µM; in the assay with MALME-3M melanoma, 18.5 µM; with MDA-MB-231 breast, 4.76 µM; in the assay on NCI-H226 lung, 35.2 µM; in the assay with NCI/ADR-RES ovarian, 59.7 µM. For the same compound, the TGI in the assay on OVCAR-3 ovarian was 4.1 µM; in the assay with OVCAR-4 ovarian, 6.59 µM; in the assay with OVCAR-5 ovarian, 26.5 µM; with PC-3 prostate, 22.4 µM; in the assay on SK-OV-3 ovarian it was 35.9 µM; in the assay with TK-10 renal, 38.4 µM. Further, the TGI with U251 CNS stood at 3.9 µM.
On to `COC(=O)[C@H](Cc1ccccc1)NP(=O)(OCCC#N)OCC1OC(n2cc(C)c(=O)[nH]c2=O)CC1N=[N+]=[N-]` (some centres not stated), for which the TGI in the assay with A549 NSCLC, in the assay on CAKI-1 renal, in the assay on CCRF-CEM leukemia, with HCC-2998 colon, in the assay with HCT-116 colon and with HL-60(TB) leukemia was above 100 µM throughout. Further, the TGI in the assay on KM12 colon, in the assay with LOX IMVI melanoma, in the assay on MALME-3M melanoma, in the assay with MDA-MB-231 breast, with NCI-H226 lung and in the assay on NCI/ADR-RES ovarian was above 100 µM in each case. In addition, the TGI in the assay on OVCAR-4 ovarian, with OVCAR-5 ovarian, in the assay with PC-3 prostate, with SK-OV-3 ovarian, in the assay with TK-10 renal and in the assay on U251 CNS was above 100 µM each time.
Take `O=C(c1ccccc1)n1c(Cc2ccccc2)nc2cc(C34CC5CC(CC(C5)C3)C4)ccc21`: the TGI in the assay on A549 NSCLC, in the assay on CAKI-1 renal, in the assay with CCRF-CEM leukemia, in the assay with HCC-2998 colon, in the assay with HCT-116 colon and in the assay on HL-60(TB) leukemia was above 100 µM throughout. The TGI in the assay on KM12 colon, in the assay on LOX IMVI melanoma, in the assay on MALME-3M melanoma, with MDA-MB-231 breast, in the assay with NCI-H226 lung and with NCI/ADR-RES ovarian was above 100 µM each time. The TGI in the assay on OVCAR-4 ovarian, in the assay with OVCAR-5 ovarian, in the assay on PC-3 prostate, with SK-OV-3 ovarian, in the assay on TK-10 renal and with U251 CNS was above 100 µM in each case.
For `O=C(O)c1n[nH][nH]c1=S`, the TGI with A549 NSCLC, in the assay with CAKI-1 renal, in the assay on CCRF-CEM leukemia, with HCC-2998 colon, in the assay with HCT-116 colon and with HL-60(TB) leukemia was above 100 µM in each case. Further, the TGI with KM12 colon, with LOX IMVI melanoma, in the assay on MALME-3M melanoma, in the assay on MDA-MB-231 breast, with NCI-H226 lung and in the assay with NCI/ADR-RES ovarian was above 100 µM in each case. For the same compound, the TGI in the assay on OVCAR-3 ovarian, in the assay with OVCAR-4 ovarian, in the assay on OVCAR-5 ovarian, in the assay with PC-3 prostate, with SK-OV-3 ovarian and in the assay with U251 CNS was above 100 µM throughout.
`C=CCOc1cc(NC(=S)c2ccoc2C)ccc1OC`: the TGI in the assay on A549 NSCLC, in the assay with CAKI-1 renal, in the assay on CCRF-CEM leukemia, in the assay on HCC-2998 colon, with HCT-116 colon and in the assay on HL-60(TB) leukemia was above 100 µM in each case. Moreover, the TGI in the assay with KM12 colon, with LOX IMVI melanoma, with MALME-3M melanoma, in the assay with MDA-MB-231 breast, in the assay with NCI-H226 lung and in the assay on NCI/ADR-RES ovarian was above 100 µM throughout. Also, the TGI in the assay on OVCAR-3 ovarian, in the assay with OVCAR-4 ovarian, with OVCAR-5 ovarian, in the assay on PC-3 prostate, in the assay with SK-OV-3 ovarian and in the assay with U251 CNS was above 100 µM in each case.
